Measured values taken from patent US10315994B2, “Photostable compounds, absorbing compounds and uses thereof” (Commonwealth Scientific and Industrial Research Organisation, priority 2015, dated 2019).

Legend:
[1] = UV/visible absorbance characteristics (λmax, λcrit, ε, E 1%,1 cm); type: physicochemical; details: for ε: in M-1 cm-1 (unit assumed)
[2] = Photostability of thin films exposed to xenon arc lamp; type: physicochemical; details: for % λmax (% of original absorbance remaining): absorbance at λmax, irradiated vs unirradiated; for % λmax (% of original absorbance remaining) / % abs total (% of original absorbance remaining): xenon arc lamp 1 hour, thin film; for % abs total (% of original absorbance remaining): sum of absorbance 290-400 nm
Experimental: 1 mL of a 3% solution of the test compound (30 mg of test compound in 1 mL solvent) was prepared in a solvent mix made up of 50% EtOH and 25% capric/caprylic triglyceride and 25% C12-C15 alkyl benzoate. 50 μL of this solution (containing 1.5 mg of test compound) was added carefully to the centre of a glass microscope slide and the volatile components left to evaporate in the dark for at least 3 hours to give a liquid film. […] The irradiation was performed in a fume cupboard where the air flow was sufficient to keep sample T<30° C. One hour's exposure represented a calculated radiation dose (using meter) of approximately 100 MED.
In order to calculate the photostability of the test compounds, the exposed slides were placed in a beaker and rinsed with 2×5 mL EtOH, 1×5 mL MeOH. The combined washings were then added to a 100 mL volumetric flask and made up to 100 mL total volume with methanol. The UV absorbance was then measured in a 10 mm cuvette. The percent stability is measured as the ratio of absorbance at λmax for the irradiated sample compared to the unirradiated sample. As a further measure, a comparison of the sum of the absorbance in the 290-400 nm range was calculated.
The thin films are a good surrogate for testing the stability of a candidate in a sunscreen formulation as they use cosmetic emollients as solvent and are formed at cosmetically relevant concentrations.

Structure (SMILES): CC1(C)CCN(C(C)(C)C)C=C1C(=O)CF
- E (1%, 1 cm) ([1]; Table 5): 1655
- λcrit ([1]; Table 5): 326 nm
- λmax ([1]; Table 5): 310 nm
- ε ([1]; Table 5): 37586
- Photostability (%) ([2]; Table 5): 30%

Structure (SMILES): CC(C)(C)CC(C)(C)N1C=C(C(=O)/C=C/c2ccc(/C=C/C(=O)C3=CN(C(C)(C)CC(C)(C)C)CCC3(C)C)cc2)C(C)(C)CC1
- Photostability (%) ([2]; Table 5): <5%

Structure (SMILES): CC(F)(F)C(=O)C1=CN(C(C)(C)C)CCC1(C)C
- E (1%, 1 cm) ([1]; Table 5): 1285
- λcrit ([1]; Table 5): 331 nm
- λmax ([1]; Table 5): 314 nm
- ε ([1]; Table 5): 33288
- Photostability (%) ([2]; Table 5): 49%

Structure (SMILES): CC1(C)CCN(C(C)(C)C)C=C1C(=O)C(Br)(Br)Br [Compound 170]
- E (1%, 1 cm) ([1]; Table 6): 321
- λcrit ([1]; Table 6): 361 nm
- λmax ([1]; Table 6): 330 nm
- ε ([1]; Table 6): 14203
- Fate under irradiation [2]: effectively destroyed
- Photostability (%) ([2]; Table 6): 13%

Structure (SMILES): CC(C)CN1C=C(C(=O)c2ccccc2)C(C)(C)CC1 [Compound 11]
- Photostability (%) ([2]; Table 7, benzoyl derivatives): 59%
- % λmax (% of original absorbance remaining) [2]: 59%
- Photostability, % remaining after irradiation ([2]; exposure to the lamp for 1 h): 59%
- % abs total (% of original absorbance remaining) [2]: 63%

Structure (SMILES): CN(C(=O)C1=CN(C(C)(C)C)CCC1(C)C)c1ccccc1 [Compound 70]
- % λmax (% of original absorbance remaining) [2]: 9%
- % abs total (% of original absorbance remaining) [2]: 14%

Structure (SMILES): Cc1ccc(NC(=O)C2=CN(C(C)(C)CC(C)(C)C)CCC2(C)C)cc1NC(=O)C1=CN(C(C)(C)CC(C)(C)C)CCC1(C)C [Compound 161]
- % λmax (% of original absorbance remaining) [2]: 55%

Structure (SMILES): CC1(C)CCN(C(C)(C)C)C=C1C(=O)c1ccc(Br)cc1 [Compound 76]
- Photostability (%) ([2]; Table 7, benzoyl derivatives): 85%

Structure (SMILES): COc1ccc(N2C=C(C(=O)C(F)(F)F)C(C)(C)CC2)cc1N1C=C(C(=O)C(F)(F)F)C(C)(C)CC1
- E (1%, 1 cm) ([1]; Table 5): 1094
- λcrit ([1]; Table 5): 364 nm
- λmax ([1]; Table 5): 340 nm
- ε ([1]; Table 5): 56720
- Photostability (%) ([2]; Table 5): 100%

Structure (SMILES): CCC(=O)C1=CN(c2ccccc2)CCC1(C)C [Compound 23]
- % λmax (% of original absorbance remaining) [2]: 30%
- % abs total (% of original absorbance remaining) [2]: 31%

Structure (SMILES): CC(C)CN1C=C(C(=O)C(F)(F)F)C(C)(C)CC1 [Compound 146]
- % λmax (% of original absorbance remaining) [2]: 89%
- % abs total (% of original absorbance remaining) [2]: 88%

Structure (SMILES): CC1(C)CCN(c2ccccc2)C=C1C(=O)C(F)(F)F [Compound 106]
- E (1%, 1 cm) ([1]; Table 1): 1033
- λcrit ([1]; Table 1): 357 nm
- λmax ([1]; Table 1): 335 nm
- ε ([1]; Table 1): 29040
- Peak point of absorbance curve (figure legend) ([1]; unirradiated control, FIGS. 3-5): approximately 335 nm
- % λmax (% of original absorbance remaining) [2]: 97%
- % decomposed after irradiation ([2]; exposure to the lamp for 1 h): less than 5%
- % abs total (% of original absorbance remaining) [2]: 97%

Structure (SMILES): CC1(C)CCN(c2cccc(N3C=C(C(=O)C(F)(F)C(F)(F)C(F)(F)F)C(C)(C)CC3)c2)C=C1C(=O)C(F)(F)C(F)(F)C(F)(F)F [Compound 159]
- E (1%, 1 cm) ([1]; Table 1): 875
- λcrit ([1]; Table 1): 366 nm
- λmax ([1]; Table 1): 348 nm
- ε ([1]; Table 1): 60200
- E (1%, 1 cm) ([1]; Table 4): 875
- ε ([1]; Table 4): 60200
- Photostability (% remains) ([2]; 1 h irradiation): 91%

Structure (SMILES): CC(C)CN1C=C(C(=O)C(C)(C)C)C(C)(C)CC1 [Compound 145]
- % λmax (% of original absorbance remaining) [2]: 60%
- % abs total (% of original absorbance remaining) [2]: 60%

Structure (SMILES): CC1(C)CCN(C(C)(C)C)C=C1C(=O)C(Cl)(Cl)Cl [Compound 169]
- E (1%, 1 cm) ([1]; Table 6): 497
- λcrit ([1]; Table 6): 361 nm
- λmax ([1]; Table 6): 334 nm
- ε ([1]; Table 6): 16618
- Fate under irradiation [2]: effectively destroyed
- Photostability (%) ([2]; Table 6): 5%

Structure (SMILES): CCCCC(CC)CN(c1ccc(C(=O)C2=CN(C(C)(C)C)CCC2(C)C)cc1)c1ccc(C(=O)C2=CN(C(C)(C)C)CCC2(C)C)cc1 (stereo not shown) [Compound 136]
- λmax ([1]; Table 1): ~340 nm
- % λmax (% of original absorbance remaining) [2]: 49%
- Photostability, % remaining after irradiation ([2]; exposure to the lamp for 1 h): 49%
- % abs total (% of original absorbance remaining) [2]: 56%
